The values that follow come from PubChem BioAssay (NCI).

Molecules are shown by their SMILES.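 How tested: cells in 96-well plates exposed to compound for 48 hours at five concentrations. GI50 = concentration required for 50% inhibition of growth. TGI denotes the concentration required for complete inhibition of growth.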

Test systems include MDA-N; RXF-631 renal; M19-MEL melanoma; XF 498 CNS; KM20L2 colon; SNB-78 CNS; LXFL 529 NSCLC; DMS 114 small cell lung; DLD-1 colon.
Common to all, as to test: DTP human tumour cell line panel, 48 h

For orientation: TGI means the concentration at which net growth stops. A higher TGI goes with less potent growth arrest. `Cc1cc[n+]2c(c1)-c1cc(C)cc[n+]1CC2`: in the assay on MDA-N, the TGI was above 100 µM.
Consider `O=C(CC1SC(=Nc2ccccc2Cl)NC1=O)Nc1ccc(Cl)cc1Cl` (stereo not drawn), for which the TGI with RXF-631 renal, in the assay with M19-MEL melanoma, in the assay with XF 498 CNS, with KM20L2 colon, with SNB-78 CNS and in the assay on LXFL 529 NSCLC was above 100 µM throughout. For the same molecule, the TGI in the assay with DMS 114 small cell lung and with DLD-1 colon was above 100 µM each time.
For `O=c1[nH]cc(F)c(=O)n1C1OC(CO)C(O)C1O` (stereo not drawn), the TGI in the assay on XF 498 CNS, with KM20L2 colon, in the assay with SNB-78 CNS, with LXFL 529 NSCLC, in the assay on DMS 114 small cell lung and with DLD-1 colon was above 100 µM in each case.
Consider `O=C(c1nc2ccccc2[nH]c1=O)C(O)c1ccccc1` (stereo not drawn), for which the TGI with M19-MEL melanoma, in the assay on KM20L2 colon, in the assay on SNB-78 CNS, with LXFL 529 NSCLC, in the assay on DMS 114 small cell lung and in the assay with DLD-1 colon was above 100 µM throughout.
`CC(=O)OCCOCNC(=S)N/N=C/c1cc(Br)cs1`: the TGI in the assay with RXF-631 renal, in the assay with M19-MEL melanoma, in the assay on XF 498 CNS, in the assay on KM20L2 colon, in the assay with SNB-78 CNS and with LXFL 529 NSCLC was above 100 µM in each case. Moreover, the concentration for total growth inhibition (TGI) in the assay with DMS 114 small cell lung and in the assay on DLD-1 colon was above 100 µM each time.
`CC1(c2ccccc2Cl)C(C#N)C(=O)NC(=O)C1C#N` (stereo not drawn): the concentration for total growth inhibition (TGI) in the assay with M19-MEL melanoma, in the assay with KM20L2 colon, in the assay on SNB-78 CNS, with LXFL 529 NSCLC, in the assay with DMS 114 small cell lung and in the assay on DLD-1 colon was above 100 µM each time.
In the assay with MDA-N, `O=C(O)CCC(=O)c1ccc2sc3ccccc3c2c1` yielded a TGI above 100 µM.
With `COCOCC/C=C/C=O`, the concentration for total growth inhibition (TGI) in the assay with XF 498 CNS, with KM20L2 colon, with SNB-78 CNS, in the assay on LXFL 529 NSCLC, in the assay with DMS 114 small cell lung and with DLD-1 colon was above 100 µM in each case.
`O=C(O)c1cccc(C(=O)O)c1S(=O)Cc1ccccc1` (stereo not drawn) showed a total growth inhibition concentration (TGI) with MDA-N above 100 µM.
`Cc1ccc(S(=O)(=O)N/N=C(/CC(=O)c2c(C)n([O-])c3ccccc3[n+]2=O)C(=O)Nc2ccccc2C)cc1`: the total growth inhibition concentration (TGI) in the assay on M19-MEL melanoma, in the assay on KM20L2 colon, with SNB-78 CNS, in the assay on LXFL 529 NSCLC, with DMS 114 small cell lung and in the assay with DLD-1 colon was above 100 µM throughout.
Consider `Cc1ccc(C)c(N2C(=O)C(=O)C(c3nc4ccccc4s3)/C(=N/NC(=O)NN)C2=O)c1` (stereo not drawn), for which the TGI in the assay on RXF-631 renal, with M19-MEL melanoma, with XF 498 CNS, in the assay with KM20L2 colon, with SNB-78 CNS and in the assay on LXFL 529 NSCLC was above 100 µM in each case. The total growth inhibition concentration (TGI) in the assay on DMS 114 small cell lung and in the assay on DLD-1 colon was above 100 µM each time.
As for `COc1ccc(-c2cc(C(=O)Nc3ccc(C)c(C)c3)nc(NC#N)n2)cc1`, the TGI in the assay with M19-MEL melanoma, in the assay on XF 498 CNS, in the assay with KM20L2 colon, in the assay with SNB-78 CNS, in the assay with LXFL 529 NSCLC and with DMS 114 small cell lung was above 100 µM each time. In addition, the total growth inhibition concentration (TGI) in the assay on DLD-1 colon was above 100 µM.
Regarding `NC(=O)c1csc(C2OC(COP(=O)(O)CP(=O)(O)OCC3OC(n4cnc5c(N)ncnc54)C(O)C3O)C(O)C2O)n1` (stereo not drawn), the concentration for total growth inhibition (TGI) in the assay with RXF-631 renal, with M19-MEL melanoma, in the assay with XF 498 CNS, with KM20L2 colon, in the assay on SNB-78 CNS and with LXFL 529 NSCLC was above 100 µM each time. The TGI with DMS 114 small cell lung and in the assay with DLD-1 colon was above 100 µM in each case.
As to `OCCNC1c2cc(Cl)ccc2-c2c(Cl)cc(Cl)cc21` (stereo not drawn), the TGI with MDA-N is above 100 µM.
As for `CC1(C)CC(=O)C(/C(=N/NC(=S)NN)C(=O)Nc2nc3ccc([N+](=O)[O-])cc3s2)C(=O)C1`, the TGI in the assay with M19-MEL melanoma, in the assay on XF 498 CNS, in the assay with KM20L2 colon, in the assay on SNB-78 CNS, in the assay with LXFL 529 NSCLC and in the assay with DMS 114 small cell lung was above 100 µM in each case. The molecule further yielded a TGI in the assay on DLD-1 colon above 100 µM.
Turning to `CC(C)(Br)C(=O)C(Br)Br`, the TGI in the assay on RXF-631 renal stood at 27.1 µM; in the assay on M19-MEL melanoma it was 16.1 µM; with XF 498 CNS, 23.8 µM; in the assay with KM20L2 colon, 32.2 µM; with SNB-78 CNS, 13.9 µM; in the assay with LXFL 529 NSCLC it was 5.87 µM. The TGI was 9.54 µM in the assay with MDA-N, 18.1 µM with DMS 114 small cell lung and 3.34 µM in the assay with DLD-1 colon.
Usually GI50 stands for the concentration giving 50% growth inhibition. In the case of `C[CH2][Sn]([CH2]C)([O]C(=O)c1ccccc1OC)[O][Sn]([CH2]C)([CH2]C)[O]C(=O)c1ccccc1OC`, the GI50 in the assay on M19-MEL melanoma was above 100 µM; with XF 498 CNS, above 100 µM; with KM20L2 colon, above 100 µM; in the assay on SNB-78 CNS, 63.4 µM; in the assay with LXFL 529 NSCLC, 15.1 µM; with DMS 114 small cell lung it was 30 µM. Moreover, the GI50 with DLD-1 colon is 50.2 µM. Also, the total growth inhibition concentration (TGI) is above 100 µM in the assay on M19-MEL melanoma; above 100 µM with XF 498 CNS; above 100 µM with KM20L2 colon; above 100 µM with SNB-78 CNS; 28.5 µM with LXFL 529 NSCLC; above 100 µM in the assay on DMS 114 small cell lung. The concentration for total growth inhibition (TGI) in the assay on DLD-1 colon is above 100 µM.
With `COc1ccc(/C=C2\CCC(C)(CN(C)C)C2=O)cc1OC` (stereo not drawn), the TGI in the assay with RXF-631 renal, in the assay on M19-MEL melanoma, with KM20L2 colon, in the assay with SNB-78 CNS, in the assay with LXFL 529 NSCLC and in the assay with DMS 114 small cell lung was above 100 µM throughout. In addition, the TGI in the assay with DLD-1 colon is above 100 µM.
In the case of `O=C1Nc2ccccc2N=CC1NC(=O)C(c1ccccc1)c1ccccc1` (stereo not drawn), the TGI with RXF-631 renal, with M19-MEL melanoma, in the assay on KM20L2 colon, with SNB-78 CNS, with LXFL 529 NSCLC and in the assay with DMS 114 small cell lung was above 100 µM in each case. In the assay on DLD-1 colon, this molecule yielded a total growth inhibition concentration (TGI) above 100 µM.
As for `c1ccc(CCc2cccnc2)nc1`, the total growth inhibition concentration (TGI) in the assay with MDA-N was above 100 µM.
